Values of other authors in patent US6821541B2, “Anaerobic tea steeper and method of use” (priority 2002, dated 2004).
Like-named read-outs stand apart in the source and are kept apart here. Each block holds one compound with its values, some of them ahead of it.

Key:
[1] = tested on: canine lymphoma (lymphosarcoma); details: dogs with lymphoma
[2] = for stability in tea drinks: room temperature

Compound: COc1cccc2c1C(=O)c1c(O)c3c(c(O)c1C2=O)C[C@@](O)(C(=O)CO)C[C@@H]3O[C@H]1C[C@H](N)[C@H](O)[C@H](C)O1 [Doxorubicin]
duration of remission ([1]; drug alone, guideline value): 18-29 weeks

stability in tea drinks [2]: generally stable
Compound: Oc1cc(O)c2c(c1)O[C@H](c1ccc(O)c(O)c1)[C@H](O)C2 [EC, (−) epicatechin]

stability in tea drinks [2]: generally stable
Compound: O=C(O[C@@H]1Cc2c(O)cc(O)cc2O[C@@H]1c1ccc(O)c(O)c1)c1cc(O)c(O)c(O)c1 [ECG, (−) epicatechin gallate]

Compound: C[C@]12C=CC(=O)C=C1CC[C@@H]1[C@@H]2C(=O)C[C@@]2(C)[C@H]1CC[C@]2(O)C(=O)CO [Prednisone]
duration of remission ([1]; guideline values): about 30 days

stability in aqueous solution ([2]; 4° C., 24 hours, pH 3-9): stable | level remaining after degradation ([2]; 24 hours at 50° C. and pH 5): below 80 % of the initial concentration | stability in tea drinks [2]: generally stable
Compound: (−) epigallocatechin gallate [EGCG]
